In PMC7815789, “Degradation of complex arabinoxylans by human colonic Bacteroidetes” (Nature Communications, 2021):

Tests used:
Assay type in all cases: biochemical
[1] = target: T1, BACINT_01039-CE1 (Bi1039-CE1) (Bacteroides intestinalis, UniProt B3C975); assay: pNP release at […] nm; settings: 1 mM substrate, 50 nM enzyme, 0.1 M MOPS pH 7.5, 37 °C
T1 construct: dimer; crystal structure residues 25-382, esterase domain 126-382

[2] = target: T2, BACINT_01038-CE6/CE1 (Bi1038-CE6/CE1) (Bacteroides intestinalis, UniProt B3C974); assay: pNP release at […] nm; settings: […] substrate, […] enzyme, […] MOPS pH […] °C
T2 construct: two modules (CE6, CE1)

[3] = target: T2, BACINT_01038-CE6/CE1 (Bi1038-CE6/CE1); assay: ferulic acid release, HPLC-DAD; settings: […] substrate, […] enzyme, […] sodium citrate, […] NaCl, pH […] °C, […] min
[4] = target: T3, BACINT_01042-GH3 (Bi1042-GH3) (Bacteroides intestinalis, UniProt B3C978); assay: xylose release, HPAEC-PAD; settings: pH […] °C, […] h, […] enzyme
T3 sequence (B3C978 19-862): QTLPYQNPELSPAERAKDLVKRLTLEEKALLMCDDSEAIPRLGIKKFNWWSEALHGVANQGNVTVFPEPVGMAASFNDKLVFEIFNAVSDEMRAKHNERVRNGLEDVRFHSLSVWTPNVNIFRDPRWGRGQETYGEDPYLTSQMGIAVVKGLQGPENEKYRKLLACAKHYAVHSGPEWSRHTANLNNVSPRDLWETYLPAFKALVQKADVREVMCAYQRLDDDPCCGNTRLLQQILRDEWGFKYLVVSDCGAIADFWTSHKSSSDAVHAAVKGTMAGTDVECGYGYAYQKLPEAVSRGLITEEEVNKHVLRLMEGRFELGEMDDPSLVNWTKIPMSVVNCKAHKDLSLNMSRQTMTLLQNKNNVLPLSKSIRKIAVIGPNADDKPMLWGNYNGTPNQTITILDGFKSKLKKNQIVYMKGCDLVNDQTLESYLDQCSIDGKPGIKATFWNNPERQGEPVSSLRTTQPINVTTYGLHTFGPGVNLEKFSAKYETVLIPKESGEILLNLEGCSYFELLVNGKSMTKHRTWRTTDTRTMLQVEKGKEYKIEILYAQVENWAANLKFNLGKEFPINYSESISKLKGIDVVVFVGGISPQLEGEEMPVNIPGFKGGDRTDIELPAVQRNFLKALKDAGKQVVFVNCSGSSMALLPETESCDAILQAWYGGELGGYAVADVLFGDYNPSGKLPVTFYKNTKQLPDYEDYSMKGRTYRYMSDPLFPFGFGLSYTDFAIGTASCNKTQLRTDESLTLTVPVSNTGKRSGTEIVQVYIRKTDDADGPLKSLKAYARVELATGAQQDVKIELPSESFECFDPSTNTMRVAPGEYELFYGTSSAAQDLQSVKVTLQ

[5] = target: T4, BACINT_01033-CE1 (Bi1033-CE1) (Bacteroides intestinalis, UniProt B3C969); assay: ferulic acid release, HPLC-DAD; settings: 200 uM substrate, 50 nM enzyme, 50 mM sodium citrate, 150 mM NaCl, pH 6.5, 37 °C, 10 min
T4 construct: dimer; N-terminal Ig-like domain, esterase domain residues 126-383
T4 sequence (B3C969 24-387): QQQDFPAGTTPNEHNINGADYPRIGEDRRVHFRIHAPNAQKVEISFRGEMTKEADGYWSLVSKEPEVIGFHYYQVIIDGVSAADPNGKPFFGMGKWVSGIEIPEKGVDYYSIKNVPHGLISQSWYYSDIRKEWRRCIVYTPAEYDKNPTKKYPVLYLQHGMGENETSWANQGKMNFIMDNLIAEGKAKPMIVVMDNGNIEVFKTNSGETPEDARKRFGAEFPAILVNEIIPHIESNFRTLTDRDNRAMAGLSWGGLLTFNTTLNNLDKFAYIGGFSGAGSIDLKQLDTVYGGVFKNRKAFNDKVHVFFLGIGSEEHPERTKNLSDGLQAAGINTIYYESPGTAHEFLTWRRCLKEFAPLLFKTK

T2 sequence (B3C974 59-680): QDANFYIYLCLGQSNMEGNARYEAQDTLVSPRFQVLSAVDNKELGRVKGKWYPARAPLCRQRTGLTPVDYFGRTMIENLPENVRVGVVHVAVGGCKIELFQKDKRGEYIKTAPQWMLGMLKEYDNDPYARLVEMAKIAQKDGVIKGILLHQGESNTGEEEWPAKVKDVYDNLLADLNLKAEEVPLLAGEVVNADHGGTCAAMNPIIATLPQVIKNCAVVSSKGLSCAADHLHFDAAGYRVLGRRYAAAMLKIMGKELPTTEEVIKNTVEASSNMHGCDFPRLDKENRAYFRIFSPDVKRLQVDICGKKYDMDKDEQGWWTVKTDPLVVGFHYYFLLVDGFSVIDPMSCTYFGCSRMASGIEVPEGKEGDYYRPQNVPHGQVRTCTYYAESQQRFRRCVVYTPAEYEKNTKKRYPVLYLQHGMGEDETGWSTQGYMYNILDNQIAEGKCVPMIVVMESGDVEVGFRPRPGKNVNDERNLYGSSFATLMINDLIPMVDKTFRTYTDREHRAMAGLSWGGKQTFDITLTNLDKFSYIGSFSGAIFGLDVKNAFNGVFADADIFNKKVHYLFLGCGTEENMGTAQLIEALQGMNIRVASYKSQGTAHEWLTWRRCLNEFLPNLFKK
T1 sequence (B3C975 25-382): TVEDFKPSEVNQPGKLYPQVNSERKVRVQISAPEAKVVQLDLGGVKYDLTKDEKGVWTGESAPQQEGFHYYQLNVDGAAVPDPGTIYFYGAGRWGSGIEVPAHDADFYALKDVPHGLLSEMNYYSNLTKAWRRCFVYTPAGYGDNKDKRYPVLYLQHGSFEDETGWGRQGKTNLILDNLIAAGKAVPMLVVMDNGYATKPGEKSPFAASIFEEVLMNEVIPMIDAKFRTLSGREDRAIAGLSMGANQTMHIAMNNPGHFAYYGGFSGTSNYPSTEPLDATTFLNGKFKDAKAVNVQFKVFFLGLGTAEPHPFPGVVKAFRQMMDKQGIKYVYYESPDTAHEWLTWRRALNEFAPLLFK

In the case of CC(=O)Oc1ccc([N+](=O)[O-])cc1 [pNP acetate], the “pNP release at 400 nm” value [1] is reported as “activity of the wild-type Bi1039-CE1, observed with pNP acetate as the substrate” and the “pNP release at 400 nm” value [2] is reported as “activities on the synthetic substrates were from Bi1040-FAE and Bi1038-CE6/CE1, respectively”.
In the case of COc1cc(/C=C/C(=O)OC[C@@H]2O[C@@H](O[C@@H]3[C@@H](O)[C@H](O[C@@H]4COC(O)[C@H](O)[C@H]4O)OC[C@H]3O)[C@H](O)[C@H]2O)ccc1O (stereo partly drawn) [FAXX, feruloylated trisaccharide (FAXX)], the “ferulic acid release, HPLC-DAD” value [3] is reported as “showed some activity on both FA and FAXX”.
In the case of OC1OC[C@@H](O[C@@H]2OC[C@@H](O)[C@H](O)[C@H]2O)[C@H](O)[C@H]1O (stereo partly drawn) [X2, xylobiose], the “xylose release, HPAEC-PAD” value [4] is reported as “Bi1042-GH3 cleaves xylo-oligosaccharides to xylose or X1”.
For COc1cc(/C=C/C(=O)OC[C@@H]2OC(O)[C@H](O)[C@H]2O)ccc1O (stereo partly drawn) [FA, feruloylated monosaccharide (FA)], the “ferulic acid release, HPLC-DAD” value [5] was “exhibits low ferulic acid cleavage activity on feruloylated monosaccharide (FA)”.
For OC1OC[C@@H](O[C@@H]2OC[C@@H](O[C@@H]3OC[C@@H](O)[C@H](O)[C@H]3O)[C@H](O)[C@H]2O)[C@H](O)[C@H]1O (stereo partly drawn) [X3, xylotriose], the “xylose release, HPAEC-PAD” value [4] was “Bi1042-GH3 cleaves xylo-oligosaccharides to xylose or X1”.
